How the values were obtained:
[1] = tested on: sAPPβ levels in H4 human neuroglioma cells over-expressing the wild-type human APP695; assay: Whole Cell Assay (In Vitro sAPPb Assay); format: cell-based; conditions: 18 hours treatment, average of 2 determinations, values marked b: geometric mean of 3-9 determinations
Experimental: Whole Cell Assay (In Vitro sAPPb Assay):
H4 human neuroglioma cells over-expressing the wild-type human APP695 are treated for 18 hours with compound in a final concentration 1% DMSO. sAPPβ levels are measured using TMB-ELISA with capture APP N-terminal antibody (Affinity BioReagents, OMA1-03132), wild-type sAPPβ specific reporter p192 (Elan), and tertiary anti rabbit-HRP (GE Healthcare).

BACE1 enzyme = BACE1 enzyme (Homo sapiens (Human), UniProt P56817); assay: BACE1 Cell-Free Assay (fluorescence polarization, cleavage of synthetic APP substrate); format: biochemical; conditions: average of 2 determinations; values marked b: geometric mean of 3-9 determinations
Chain of BACE1 enzyme (P56817 46-457): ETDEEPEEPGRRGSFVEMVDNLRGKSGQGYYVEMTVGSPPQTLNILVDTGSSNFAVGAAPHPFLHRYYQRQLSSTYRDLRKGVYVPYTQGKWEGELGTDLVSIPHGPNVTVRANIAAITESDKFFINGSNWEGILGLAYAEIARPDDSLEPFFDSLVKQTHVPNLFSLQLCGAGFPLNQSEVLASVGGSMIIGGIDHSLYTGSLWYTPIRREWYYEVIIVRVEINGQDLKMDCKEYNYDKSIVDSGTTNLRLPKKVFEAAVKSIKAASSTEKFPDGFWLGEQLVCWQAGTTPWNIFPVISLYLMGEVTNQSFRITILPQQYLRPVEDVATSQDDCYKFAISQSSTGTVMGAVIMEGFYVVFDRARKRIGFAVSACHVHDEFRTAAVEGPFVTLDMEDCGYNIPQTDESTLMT
Excerpt: This assay measures the inhibition of the beta-secretase enzyme as it cleaves a non-native peptide.
A synthetic APP substrate that can be cleaved by beta-secretase having N-terminal biotin and made fluorescent by the covalent attachment of Oregon Green at the Cys residue is used to assay beta-secretase activity in the presence or absence of the inhibitory compounds. […] The BACE1 enzyme is affinity purified material from conditioned media of CHO-K1 cells that have been transfected with a soluble BACE construct (BACE1deltaTM96His). Compounds are incubated in a ½ log dose response curve from a top concentration of 100 μM with BACE1 enzyme and the biotinylated fluorescent peptide in 384-well black plates (Thermo Scientific #4318). BACE1 is at a final concentration of 0.1 nM with a final concentration of peptide substrate of 150 nM in a reaction volume of 30 μL assay buffer [100 mM sodium acetate, pH 4.5 (brought to pH with acetic acid), and 0.001% Tween-20]. Plates are covered and incubated for 3 hours at 37° C. The reaction is stopped with the addition of 30 μL of 1.5 μM Streptavidin (Pierce, #21125). After a 10 minute incubation at room temperature, plates are read on a PerkinElmer EnVision for fluorescence polarization (Ex485 nm/Em530 nm). The activity of the beta-secretase enzyme is detected by changes in the fluorescence polarization that occur when the substrate is cleaved by the enzyme.

IC50 ([1]; Homo sapiens) [nM]	IC50 (BACE1 enzyme) [nM]	Molecule	IC50 [1] [nM]
6.7	–	Cc1ccc([C@H]2C[C@H]3CSC(N)=N[C@@]3(c3ccc(F)cc3F)CO2)cn1 (relative stereo) [Example 7, rel-(4aR,6R,8aS)-8a-(2,4-Difluorophenyl)-6-(6-methylpyridin-3-yl)-4,4a,5,6,8,8a-hexahydropyrano[3,4-d][1,3]thiazin-2-amine]	–
3.78	83.7	Cn1nc([C@H]2C[C@H]3CSC(N)=N[C@@]3(c3ccc(F)cc3F)CO2)cc1F [Example 1, (4aR,6R,8aS)-8a-(2,4-difluorophenyl)-6-(5-fluoro-1-methyl-1H-pyrazol-3-yl)-4,4a,5,6,8,8a-hexahydropyrano[3,4-d][1,3]thiazin-2-amine]	–
18.2	233	NC1=N[C@@]2(c3ccc(F)cc3F)CO[C@@H](c3ccc(F)cn3)C[C@H]2CS1 [Example 2, (4aR,6R,8aS)-8a-(2,4-Difluorophenyl)-6-(5-fluoropyridin-2-yl)-4,4a,5,6,8,8a-hexahydropyrano[3,4-d][1,3]thiazin-2-amine]	–
7.43	119	Cn1cc([C@H]2C[C@H]3CSC(N)=N[C@@]3(c3ccc(F)cc3F)CO2)ccc1=O [Example 3, 5-[(4aR,6R,8aS)-2-Amino-8a-(2,4-difluorophenyl)-4,4a,5,6,8,8a-hexahydropyrano[3,4-d][1,3]thiazin-6-yl]-1-methylpyridin-2(1H)-one]	–
13.3	72.8	NC1=N[C@@]2(c3ccc(F)cc3F)CO[C@@H](c3cnn(CC(F)(F)F)c3)C[C@H]2CS1 [Example 5, (4aR,6R,8aS)-8a-(2,4-Difluorophenyl)-6-[1-(2,2,2-trifluoroethyl)-1H-pyrazol-4-yl]-4,4a,5,6,8,8a-hexahydropyrano[3,4-d][1,3]thiazin-2-amine]	–
26.4	162	Cn1cc(F)c([C@H]2C[C@H]3CSC(N)=N[C@@]3(c3ccc(F)cc3F)CO2)n1 [Example 8, (4aR,6R,8aS)-8a-(2,4-difluorophenyl)-6-(4-fluoro-1-methyl-1H-pyrazol-3-yl)-4,4a,5,6,8,8a-hexahydropyrano[3,4-d][1,3]thiazin-2-amine]	–
21.2	240	NC1=N[C@@]2(c3ccc(F)cc3F)CO[C@@H](c3nc4cnccc4o3)C[C@H]2CS1 [Example 10, (4aR,6R,8aS)-8a-(2,4-difluorophenyl)-6-([1,3]oxazolo[4,5-c]pyridin-2-yl)-4,4a,5,6,8,8a-hexahydropyrano[3,4-d][1,3]thiazin-2-amine]	–
29.1	343	COc1cnc([C@H]2C[C@H]3CSC(N)=N[C@@]3(c3ccc(F)cc3F)CO2)nc1 [Example 11, (4aR,6R,8aS)-8a-(2,4-Difluorophenyl)-6-(5-methoxypyrimidin-2-yl)-4,4a,5,6,8,8a-hexahydropyrano[3,4-d][1,3]thiazin-2-amine]	–
60.3	1400	Cc1ncc([C@H]2C[C@H]3CSC(N)=N[C@@]3(c3ccc(F)cc3F)CO2)cn1 [Example 17, (4aR,6R,8aS)-8a-(2,4-difluorophenyl)-6-(2-methylpyrimidin-5-yl)-4,4a,5,6,8,8a-hexahydropyrano[3,4-d][1,3]thiazin-2-amine]	–
20.2	389	Cc1cnc([C@H]2C[C@H]3CSC(N)=N[C@@]3(c3ccc(F)cc3F)CO2)cn1 [Example 20, (4aR,6R,8aS)-8a-(2,4-Difluorophenyl)-6-(5-methylpyrazin-2-yl)-4,4a,5,6,8,8a-hexahydropyrano[3,4-d][1,3]thiazin-2-amine]	–
40.8	5020	NC1=N[C@@]2(c3ccc(F)cc3F)CO[C@@H](c3nc4ccncc4o3)C[C@H]2CS1 [Example 23, (4aR,6R,8aS)-8a-(2,4-Difluorophenyl)-6-([1,3]oxazolo[5,4-c]pyridin-2-yl)-4,4a,5,6,8,8a-hexahydropyrano[3,4-d][1,3]thiazin-2-amine]	–
141	1550	NC1=N[C@@]2(c3ccc(F)cc3F)CO[C@@H](c3cncnc3)C[C@H]2CS1 [Example 24, (4aR,6R,8aS)-8a-(2,4-Difluorophenyl)-6-(pyrimidin-5-yl)-4,4a,5,6,8,8a-hexahydropyrano[3,4-d][1,3]thiazin-2-amine]	–
2.7	–	NC1=N[C@@]2(c3ccc(F)cc3F)CO[C@@H](c3cncc(F)c3)C[C@H]2CS1 [Example 29, (4aR,6R,8aS)-8a-(2,4-difluorophenyl)-6-(5-fluoropyridin-3-yl)-4,4a,5,6,8,8a-hexahydropyrano[3,4-d][1,3]thiazin-2-amine]	–

Further lines, the molecule ahead of its results:

Molecule	IC50 ([1]; Homo sapiens) [nM]	IC50 (BACE1 enzyme) [nM]	IC50 [1] [nM]
NC1=N[C@@]2(c3ccc(F)cc3F)CO[C@@H](c3cn4cccnc4n3)C[C@H]2CS1 [Example 4, (4aR,6R,8aS)-8a-(2,4-Difluorophenyl)-6-(imidazo[1,2-a]pyrimidin-2-yl)-4,4a,5,6,8,8a-hexahydropyrano[3,4-d][1,3]thiazin-2-amine]	66.2	1840	–
Cc1nc([C@H]2C[C@H]3CSC(N)=N[C@@]3(c3ccc(F)cc3F)CO2)no1 [Example 6, (4aR,6R,8aS)-8a-(2,4-Difluorophenyl)-6-(5-methyl-1,2,4-oxadiazol-3-yl)-4,4a,5,6,8,8a-hexahydropyrano[3,4-d][1,3]thiazin-2-amine]	41.5	341	–
Cc1cc([C@H]2C[C@H]3[C@@H](C)SC(N)=N[C@@]3(c3ccc(F)cc3F)CO2)on1 [Example 9, (4R,4aR,6R,8aS)-8a-(2,4-difluorophenyl)-4-methyl-6-(3-methyl-1,2-oxazol-5-yl)-4,4a,5,6,8,8a-hexahydropyrano[3,4-d][1,3]thiazin-2-amine]	5.28	75.9	–
Cn1ncc([C@H]2C[C@H]3CSC(N)=N[C@@]3(c3ccc(F)cc3F)CO2)n1 [Example 12, (4aR,6R,8aS)-8a-(2,4-Difluorophenyl)-6-(2-methyl-2H-1,2,3-triazol-4-yl)-4,4a,5,6,8,8a-hexahydropyrano[3,4-d][1,3]thiazin-2-amine]	41.3	466	–
Cc1cc([C@H]2C[C@H]3[C@@H](CF)SC(N)=N[C@@]3(c3ccc(F)cc3F)CO2)on1 [Example 13, (4S,4aR,6R,8aS)-8a-(2,4-Difluorophenyl)-4-(fluoromethyl)-6-(3-methyl-1,2-oxazol-5-yl)-4,4a,5,6,8,8a-hexahydropyrano[3,4-d][1,3]thiazin-2-amine]	13.1	54.8	–
NC1=N[C@@]2(c3ccc(F)cc3F)CO[C@@H](c3nc(C(F)F)co3)C[C@H]2CS1 [Example 14, (4aR,6R,8aS)-6-[4-(Difluoromethyl)-1,3-oxazol-2-yl]-8a-(2,4-difluorophenyl)-4,4a,5,6,8,8a-hexahydropyrano[3,4-d][1,3]thiazin-2-amine]	20.8	231	–
C[C@H]1SC(N)=N[C@@]2(c3ccc(F)cc3F)CO[C@@H](c3cnn(C)c3)C[C@@H]12 [Example 16, (4R,4aR,6R,8aS)-8a-(2,4-Difluorophenyl)-4-methyl-6-(1-methyl-1H-pyrazol-4-yl)-4,4a,5,6,8,8a-hexahydropyrano[3,4-d][1,3]thiazin-2-amine]	2.84	24.6	–
Cn1cc([C@H]2C[C@H]3CSC(N)=N[C@@]3(c3ccc(F)cc3F)CO2)nn1 [Example 18, (4aR,6R,8aS)-8a-(2,4-Difluorophenyl)-6-(1-methyl-1H-1,2,3-triazol-4-yl)-4,4a,5,6,8,8a-hexahydropyrano[3,4-d][1,3]thiazin-2-amine]	25.2	877	–
N#Cc1coc([C@H]2C[C@H]3CSC(N)=N[C@@]3(c3ccc(F)cc3F)CO2)n1 [Example 19, 2-[(4aR,6R,8aS)-2-Amino-8a-(2,4-difluorophenyl)-4,4a,5,6,8,8a-hexahydropyrano[3,4-d][1,3]thiazin-6-yl]-1,3-oxazole-4-carbonitrile]	73.2	555	–
CCOc1cc([C@H]2C[C@H]3CSC(N)=N[C@@]3(c3ccc(F)cc3F)CO2)nn1C [Example 21, (4aR,6R,8aS)-8a-(2,4-Difluorophenyl)-6-(5-ethoxy-1-methyl-1H-pyrazol-3-yl)-4,4a,5,6,8,8a-hexahydropyrano[3,4-d][1,3]thiazin-2-amine]	123	5400	–
Cn1cc([C@H]2C[C@H]3[C@@H](CF)SC(N)=N[C@@]3(c3ccc(F)cc3F)CO2)cn1 [Example 22, (4S,4aR,6R,8aS)-8a-(2,4-Difluorophenyl)-4-(fluoromethyl)-6-(1-methyl-1H-pyrazol-4-yl)-4,4a,5,6,8,8a-hexahydropyrano[3,4-d][1,3]thiazin-2-amine]	6.28	–	–
(4aR,6R,8aS)-8a-(2,4-Difluorophenyl)-6-[1-(^2H3)methyl-1H-pyrazol-4-yl]-4,4a,5,6,8,8a-hexahydropyrano[3,4-d][1,3]thiazin-2-amine [Example 15]	–	–	4.37

Source: patent US8865706B2, “Heteroaryl-substituted hexahydropyrano[3,4-d][1,3]thiazin-2-amine compounds” (Pfizer Inc., priority 2013, dated 2014)
